Source: patent US7803382B2, “Method for inducing immune response to NY-CO-58” (Ludwig Institute for Cancer Research Ltd., priority 2001, dated 2010)

How the values were obtained:
[1] = system: sera from colon cancer patients; test: Spot assay: reactivity of serologically defined colon cancer antigens with colon cancer patient sera; format: binding, human; conditions: reactive sera/sera tested; includes autologous where applicable; sera 1:200
Method: Serum samples from patients with colon cancer were screened using a modification of the plaque assay, termed a spot assay. In this method, 80×120 mm nitrocellulose membranes were precoated with a film of NZY/0.7% Agarose/2.5 mM IPTG and placed on a reservoir layer of NZY/0.7% Agarose in a 86×128 mm Omni Tray (Nalge Nunc International Corp., Naperville, Ill.). Approximately 1.0×10^5 pfU of monoclonal phage encoding individual serologically defined colon cancer antigens, in a volume of 20 μl, were mixed with 20 μl of exponentially growing E. coli XL-1 Blue MRF and spotted (0.7-μl aliquots) on the precoated nitrocellulose membranes. Membranes were incubated for 15 hours at 37° C. A total of 75 different serologically defined colon cancer antigens were spotted in duplicate per nitrocellulose membrane. The agarose film was then removed from the membrane and the filters were processed for reactivity with individual serum samples (1:200 dilution), as described in Scanlan, et al., Int. J. Cancer 76:652-658 (1998) and Scanlan, et al., Int. J. Cancer 83:456-64, (1999).

CD4+ T cells = test: ELISPOT of peptide-stimulated CD4+ T cells from patients; format: cell-based, human; conditions: autologous targets presenting peptide
Method: Given the correlation between humoral and cellular immunity observed with CT antigens such as NY-ESO-1 (Jager et al. J Exp Med. 1998 Jan. 19; 187(2):265-70) and SSX2 (Ayyoub et al. J Immunol. 2002 Feb. 15; 168(4):1717-22, Tureci et al. Cancer Res. 1996 Oct. 15; 56(20):4766-72.), these two patients were analyzed to look for the presence of T cell responses. Nine long peptides (30AA) were synthesized from the sequence of NY-CO-58 (SEQ ID NO:20) on the basis of the presence of anchor motifs for various class I molecules. Five prediction algorithms were used to map potential these potential anchor motifs which correspond to potential epitopes, resulting in the selection of the following polypeptides: 3-32 (SEQ ID NO:31), 51-80 (SEQ ID NO:35), 151-180 (SEQ ID NO:36), 271-300 (SEQ ID NO:37), 375-404 (SEQ ID NO:38), 403-432 (SEQ ID NO:33), 510-539 (SEQ ID NO:39), 633-662 (SEQ ID NO:40), and 692-721 (SEQ ID NO:34).
CD8^+ and CD4^+ T cells were then purified from peripheral blood lymphocytes (PBLs) from the two patients and were stimulated with these peptides either individually or in pools of 2-3 peptides (Gnjatic et al. J Immunol. 2003 Feb. 1; 170(3):1191-6). The stimulated CD8^+ T cells were then tested for recognition of the same stimulator peptide(s), either individually or pools in standard ELISPOT assays (Jager Proc Natl Acad Sci USA. 2000 Apr. 25; 97(9):4760-5, Gnjatic et al. Proc Natl Acad Sci USA. 2000 Sep. 26; 97(20):10917-22).
In these same patients CD4^+ T cell responses were investigated. CD4^+ T cells were stimulated with the peptides individually or in pools of 2-3 peptides as done with CD8^+ T cells. The stimulated peptides were tested in ELISPOT assays using autologous targets presenting the stimulator peptide(s). […] Recognition of control autologous targets, either unpulsed cells or cells presenting irrelevant peptide.
An additional sample of PBLs was obtained from patient UKE-16. The patient remained positive for serum NY-CO-58 specific antibody. Again, CD4^+ T cells were stimulated with peptides derived from the NY-CO-58 sequence. This time additional “minimal” 12-mer epitopes selected from within the 30-mer polypeptides using the ProPred prediction algorithm (Singh, H. and Raghava, G. P. S. (2001) ProPred: Prediction of HLA-DR binding sites. Bioinformatics, 17(12), 1236-37, Propred server available online from Drs Raghava and Singh, Bioinformatics Center, Institute of Microbial Technology, Chandigarh, India). The 12-mer peptides corresponded to amino acid 15-26 (SEQ ID NO:32) and 699-710 (SEQ ID NO:41) of NY-CO-58 (SEQ ID NO:20). Analysis of the responses was carried out by ELISPOT assay as before. Peptide 15-26 was recognized by CD4^+ T cells from patient UKE-16 and represents a minimal epitope within amino acid 3-32 (SEQ ID NO:31). This also confirmed that the T cell reactivity was specific to the peptides and not due to an irrelevant contaminant, which would be unlikely to be present within two separate batches of synthetic peptides.

[2] = system: peripheral blood lymphocytes; format: cell-based, HHD mice
splenocytes = format: cell-based, HHD mice

CO-95 (KIAA1416): serologically defined colon cancer antigen, protein SEQ ID NO:16
Reactivity of individual antigens [1]: 4/75

EIYNGKLFDLLNKKAKLRVLEDGKQQVQVV (listed as Homo sapiens) [peptide 403-432, fragment of NY-CO-58, residues 403-432]
CD4+ T cell response, ELISPOT (CD4+ T cells; patient UKE-1): responded

KHFSALRDVIKALRLAMQLEEQASRQISSK (listed as Homo sapiens) [692-721, fragment of NY-CO-58, residues 692-721]
CD4+ T cell response, ELISPOT (CD4+ T cells; patient UKE-1): reactive | CD4+ T cell response, ELISPOT (CD4+ T cells; patient UKE-16): reacted very clearly

KLGLEVYVT (listed as Homo sapiens)
ex vivo ELISPOT response from PBL [2]: not seen | ELISPOT response after in vitro restimulation (splenocytes): responses were detected

LAIKIQRSNGLI (listed as Homo sapiens) [peptide 15-26, minimal 12-mer of NY-CO-58, residues 15-26]
CD4+ T cell response, ELISPOT (CD4+ T cells; patient UKE-16): recognized

LQARLFPGL (listed as Homo sapiens)
ex vivo ELISPOT response from PBL [2]: not seen | ELISPOT response after in vitro restimulation (splenocytes): responses were detected

MDSSLQARLFPGLAIKIQRSNGLIHSANVR (listed as Homo sapiens) [3-32]
CD4+ T cell response, ELISPOT (CD4+ T cells; patient UKE-1): reactive | CD4+ T cell response, ELISPOT (CD4+ T cells; patient UKE-16): reacted very clearly

NLEKSCVSV (listed as Homo sapiens)
ex vivo ELISPOT response from PBL [2]: not seen | ELISPOT response after in vitro restimulation (splenocytes): responses were detected

SLLALKECI (listed as Homo sapiens)
ex vivo ELISPOT response from PBL [2]: showed a response | ELISPOT response after in vitro restimulation (splenocytes): confirmed
